Results as given in patent publication US10316017B2, “COT modulators and methods of use thereof” (Gilead Sciences, Inc., priority 2015, dated 2019).

How the values were obtained:
[1] = test system: TNFα production in LPS-stimulated human monocytes; assay: Cot Monocyte TNFα Cell Based Assay; conditions: Homo sapiens, Monocyte, LPS-stimulated human monocytes, TNFα TR-FRET; read-out: EC50 TNF
Outline: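 Cells at 5,000/well were pretreated with compound for 1 h at 37 °C (0.5% DMSO final), then stimulated with 50 pg/ml LPS for 4 h at 37 °C. Supernatant TNFα was measured by two-antibody TR-FRET after overnight room-temperature incubation; values are percent of control between unstimulated and stimulated wells.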

[2] = molecular target: T1, human Cot catalytic domain (30-397 amino acids) (Homo sapiens, UniProt P41279); assay: High Throughput Cot Biochemical Assay (KinEASE TR-FRET); conditions: Cot KinEASE TR-FRET, 400 μM ATP; read-out: IC50 HTRF
T1 construct: Purified recombinant human Cot catalytic domain (30-397 amino acids) was purchased from Cama Biosciences; purchased Cama Biosciences (so in the source)
Outline: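 Reaction of 5 nM recombinant human Cot catalytic domain (aa 30-397) with 1 μM STK3 peptide (XL665-labeled) and 400 μM ATP in 10 mM MOPS pH 7.0, 10 mM MgOAc, 1 mM DTT, 0.5 mg/mL BSA, 0.1% DMSO. Phosphopeptide detected by TR-FRET with europium anti-phospho antibody.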

T1 sequence (P41279 30-397): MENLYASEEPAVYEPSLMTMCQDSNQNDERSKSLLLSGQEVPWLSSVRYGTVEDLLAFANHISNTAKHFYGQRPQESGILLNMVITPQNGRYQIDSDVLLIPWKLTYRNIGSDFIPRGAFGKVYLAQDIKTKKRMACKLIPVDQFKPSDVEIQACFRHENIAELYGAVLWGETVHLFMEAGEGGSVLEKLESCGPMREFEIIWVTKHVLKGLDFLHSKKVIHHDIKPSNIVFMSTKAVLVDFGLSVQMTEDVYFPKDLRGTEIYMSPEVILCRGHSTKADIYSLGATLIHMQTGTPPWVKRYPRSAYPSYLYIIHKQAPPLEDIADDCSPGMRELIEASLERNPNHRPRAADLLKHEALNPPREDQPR

| Structure (SMILES) | EC50 [1] | IC50 [2] |
| --- | --- | --- |
| [2H][C@@](Nc1cc(C#N)c2ncc(C#N)c(NCC(C)(C)C)c2c1)(c1cn(C(C)(C)C)nn1)c1ccccc1Cl [Example 1029, (S)-6-(((1-(tert-butyl)-1H-1,2,3-triazol-4-yl)(2-chlorophenyl)methyl-d)amino)-4-(neopentylamino)quinoline-3,8-dicarbonitrile] | 225 nM | 14 nM |
| [2H][C@](Nc1cc(C#N)c2ncc(C#N)c(NCC(C)(C)C)c2c1)(c1cn(C2(C#N)CC2)nn1)c1ccccc1Cl [Example 1030, 6-(((2-chlorophenyl)(1-(1-cyanocyclopropyl)-1H-1,2,3-triazol-4-yl)methyl-d)amino)-4-(neopentylamino)quinoline-3,8-dicarbonitrile] | 82 nM | 5 nM |
| CC(C)(C)CNc1c(C#N)cnc2c(Cl)cc(N[C@@H](c3cccc(-n4cncn4)c3)c3cn(C4CC4)nn3)cc12 [Example 1031, (S)-6-(((3-(1H-1,2,4-triazol-1-yl)phenyl)(1-cyclopropyl-1H-1,2,3-triazol-4-yl)methyl)amino)-8-chloro-4-(neopentylamino)quinoline-3-carbonitrile] | 118 nM | 1 nM |
| CC(C)(C)CNc1c(C#N)cnc2c(Cl)cc(N[C@@H](c3cccc(-n4ccnc4)c3)c3cn(C4CC4)nn3)cc12 [Example 1032, (S)-6-(((3-(1H-imidazol-1-yl)phenyl)(1-cyclopropyl-1H-1,2,3-triazol-4-yl)methyl)amino)-8-chloro-4-(neopentylamino)quinoline-3-carbonitrile] | 161 nM | 1 nM |
| CC(C)(C)CNc1c(C#N)cnc2c(Cl)cc(N[C@@H](c3cccc(-n4cccn4)c3)c3cn(C4CC4)nn3)cc12 [Example 1033, (S)-6-(((3-(1H-pyrazol-1-yl)phenyl)(1-cyclopropyl-1H-1,2,3-triazol-4-yl)methyl)amino)-8-chloro-4-(neopentylamino)quinoline-3-carbonitrile] | 456 nM | 2 nM |
| [2H][C@](Nc1cc(C#N)c2ncc(C#N)c(NC3CCCC3(C)C)c2c1)(c1ccc(F)cc1)c1cn(C2CC2)nn1 (stereo partly drawn) [Example 1034, 6-(((S)-(1-cyclopropyl-1H-1,2,3-triazol-4-yl)(4-fluorophenyl)methyl-d)amino)-4-((2,2-dimethylcyclopentyl)amino) quinoline-3,8-dicarbonitrile] | 93 nM | 4 nM |
| CC(C)(CO)CNc1c(C#N)cnc2c(C#N)cc(N[C@H](c3cn(C4(C)CC4)nn3)c3ccccc3Cl)cc12 [Example 1035, (S)-6-(((2-chlorophenyl)(1-(1-methylcyclopropyl)-1H-1,2,3-triazol-4-yl)methyl)amino)-4-((3-hydroxy-2,2-dimethylpropyl)amino)quinoline-3,8-dicarbonitrile] | 316 nM | 19 nM |
| CC(C)(C)CNc1c(C#N)cnc2c(C#N)cc(N[C@H](c3cn(C4(CF)CC4)nn3)c3ccccc3Cl)cc12 [Example 1036, (S)-6-(((2-chlorophenyl)(1-(1-(fluoromethyl)cyclopropyl)-1H-1,2,3-triazol-4-yl)methyl)amino)-4-(neopentylamino)quinoline-3,8-dicarbonitrile] | 195 nM | 9 nM |
| CC(C)(C)CNc1c(C#N)cnc2c(-c3cncnc3)cc(N[C@H](c3cn(C4(C)CC4)nn3)c3ccccc3Cl)cc12 [Example 1037, (S)-6-(((2-chlorophenyl)(1-(1-methylcyclopropyl)-1H-1,2,3-triazol-4-yl)methyl)amino)-4-(neopentylamino)-8-(pyrimidin-5-yl)quinoline-3-carbonitrile] | ≥ 1000 nM | 102 nM |
| Cc1c([C@H](Nc2cc(Cl)c3ncc(C#N)c(NCC(C)(C)C)c3c2)c2cn(C3(C(F)(F)F)CC3)nn2)cccc1-n1cccn1 [Example 1038, (S)-8-chloro-6-(((2-methyl-3-(1H-pyrazol-1-yl)phenyl)(1-(1-(trifluoromethyl)cyclopropyl)-1H-1,2,3-triazo1-4-yl)methyl)amino)-4-(neopentylamino)quinoline-3-carbonitrile] | 566 nM | 10 nM |
| Cc1c([C@H](Nc2cc(Cl)c3ncc(C#N)c(NCC(C)(C)C)c3c2)c2cn(C3(C(F)(F)F)CC3)nn2)cccc1-n1nccn1 [Example 1039, (S)-8-chloro-6-(((2-methyl-3-(2H-1,2,3-triazol-2-yl)phenyl)(1-(1-(trifluoromethyl)cyclopropyl)-1H-1,2,3-triazol-4-yl)methyl)amino)-4-(neopentylamino)quinoline-3-carbonitrile] | 496 nM | 19 nM |
| Cc1c([C@H](Nc2cc(Cl)c3ncc(C#N)c(NCC(C)(C)C)c3c2)c2cn(C3(C(F)(F)F)CC3)nn2)cccc1-n1cncn1 [Example 1040, (S)-8-chloro-6-(((2-methyl-3-(1H-1,2,4-triazol-1-yl)phenyl)(1-(1-(trifluoromethyl)cyclopropyl)-1H-1,2,3-triazol-4-yl)methyl)amino)-4-(neopentylamino)quinoline-3-carbonitrile] | 87 nM | 4 nM |
| Cc1c([C@H](Nc2cc(Cl)c3ncc(C#N)c(NCC(C)(C)C)c3c2)c2cn(C3(C(F)(F)F)CC3)nn2)cccc1-n1ccnc1 [Example 1041, (S)-6-(((3-(1H-imidazol-1-yl)-2-methylphenyl)(1-(1-(trifluoromethyl)cyclopropyl)-1H-1,2,3-triazol-4-yl)methyl)amino)-8-chloro-4-(neopentylamino)quinoline-3-carbonitrile] | 86 nM | 4 nM |
| Cc1c([C@H](Nc2cc(C#N)c3ncc(C#N)c(NCC(C)(C)C)c3c2)c2cn(C3(C(F)(F)F)CC3)nn2)cccc1-n1ccnc1 [Example 1042] | 105 nM | 2 nM |
| Cc1c([C@H](Nc2cc(C#N)c3ncc(C#N)c(NCC(C)(C)C)c3c2)c2cn(C3(C(F)(F)F)CC3)nn2)cccc1-n1cncn1 [Example 1043, (S)-6-(((2-methyl-3-(1H-1,2,4-triazol-1-yl)phenyl)(1-(1-(trifluoromethyl)cyclopropyl)-1H-1,2,3-triazol-4-yl)methyl)amino)-4-(neopentylamino)quinoline-3,8-dicarbonitrile] | 110 nM | 3 nM |
| Cc1c([C@H](Nc2cc(C#N)c3ncc(C#N)c(NCC(C)(C)C)c3c2)c2cn(C3(C(F)(F)F)CC3)nn2)cccc1-n1nccn1 [Example 1044, (S)-6-(((2-methyl-3-(2H-1,2,3-triazol-2-yl)phenyl)(1-(1-(trifluoromethyl)cyclopropyl)-1H-1,2,3-triazol-4-yl)methyl)amino)-4-(neopentylamino)quinoline-3,8-dicarbonitrile] | 214 nM | 8 nM |
| Cc1c([C@H](Nc2cc(C#N)c3ncc(C#N)c(NCC(C)(C)C)c3c2)c2cn(C3(C(F)(F)F)CC3)nn2)cccc1-n1cccn1 [Example 1045, (S)-6-(((2-methyl-3-(1H-pyrazol-1-yl)phenyl)(1-(1-(trifluoromethyl)cyclopropyl)-1H-1,2,3-triazol-4-yl)methyl)amino)-4-(neopentylamino)quinoline-3,8-dicarbonitrile] | 268 nM | 5 nM |
| [2H]c1c([C@@]([2H])(Nc2cc(Cl)c3ncc(C#N)c(NCC(C)(C)C)c3c2)c2c(F)cccc2Cl)nnn1C1(C)CC1 [Example 1046, (S)-8-chloro-6-(((2-chloro-6-fluorophenyl)(1-(1-methylcyclopropyl)-1H-1,2,3-triazol-4-yl-5-d)methyl-d)amino)-4-(neopentylamino)quinoline-3-carbonitrile] | ≥ 1000 nM | 142 nM |
